# Reference: patent publication US20110097310A1, “ANTI-AGING OR ANTIOXIDANT COMPOSITION CONTAINING PLANT STEM CELL LINE DERIVED FROM CAMBIUM OF PANAX GINSENG” (UNHWA CORPORATION, priority 2008, published 2011)
# System: MMP-1
# Experiment: Inhibition of MMP-1 expression caused by UVB radiation in NHF cells
# Assay type: cell-based, human
# Conditions: NHF(p6), 40 mJ UVB, 48 hours, 10 uM positive control; Control UV = 230
# Protocol: When MMPs are increased due to exposure to UV radiation, the increased MMPs will degrade skin collagen to form skin wrinkles. Thus, in order to examine whether MMP-1 expression that increased due to UV radiation is inhibited by the extract or culture medium of the wild ginseng cambium-derived homogeneous cell line, the following test was carried out.
# NHF(p6) cells were dispensed in a 12-well plate at a density of 75,000 cells/well and starved for 24 hours. Then, the cells were radiated with 40 mJ of UVB and treated with varying concentrations of each of the samples for 48 hours. Then, an experiment was carried out using a kit (Amersham, RPN 2610). As a positive control, 10 μM retinoic acid was used.
smiles,measurement,value
"CC1=C(/C=C/C(C)=C/C=C/C(C)=C/C(=O)O)C(C)(C)CCC1 [Retinoic acid, retinoic acid]","MMP-1 expression, % of control (No UV = 100)",85 % of control
